Test results: PMC5218480 (PLoS ONE, 2017)

Test system: MV-4-11 cells
Experiment: Gene expression microarray analysis (Affymetrix PrimeView) and GSEA
Format: cell-based, human
Parameters: RFU PODN (11730768_x_at) / Fold change /veh PODN (11730768_x_at) / RFU LINC00158 (11744669_a_at) / Fold change /veh LINC00158 (11744669_a_at) / RFU DUSP10 (11751237_a_at) / Fold change /veh DUSP10 (11751237_a_at) / RFU ID3 (11757404_x_at) / Fold change /veh ID3 (11757404_x_at) / RFU PLEKHG5 (11737974_s_at) / Fold change /veh PLEKHG5 (11737974_s_at) / RFU LRRC4B (11730491_at) / Fold change /veh LRRC4B (11730491_at) / RFU GIMAP4 (11747438_a_at) / Fold change /veh GIMAP4 (11747438_a_at) / RFU KRT8 (11758183_x_at) / Fold change /veh KRT8 (11758183_x_at) / RFU CNN1 (11734310_a_at) / Fold change /veh CNN1 (11734310_a_at) / RFU VPS37D (11726825_at) / Fold change /veh VPS37D (11726825_at) / RFU C10orf10 (11716522_x_at) / Fold change /veh C10orf10 (11716522_x_at) / RFU KIR2DL2 /// KIR2DL4 /// KIR2DL5A /// KIR2DL5B /// KIR2DS1 /// KIR2DS2 /// KIR2DS3 /// KIR2DS4 /// KIR3DL3 /// KIR3DL3 /// KIR3DS1 (11738374_at) / Fold change /veh KIR2DL2 /// KIR2DL4 /// KIR2DL5A /// KIR2DL5B /// KIR2DS1 /// KIR2DS2 /// KIR2DS3 /// KIR2DS4 /// KIR3DL3 /// KIR3DL3 /// KIR3DS1 (11738374_at) / RFU C1QL1 (11718748_at) / Fold change /veh C1QL1 (11718748_at) / RFU TMPRSS4 (11747572_a_at) / Fold change /veh TMPRSS4 (11747572_a_at) / RFU HAMP (11756126_x_at) / Fold change /veh HAMP (11756126_x_at) / RFU RNFT2 (11725882_a_at) / Fold change /veh RNFT2 (11725882_a_at) / RFU NR4A2 (11747474_a_at) / Fold change /veh NR4A2 (11747474_a_at) / RFU ABCC12 (11746883_a_at) / Fold change /veh ABCC12 (11746883_a_at) / RFU TMEM136 (11760407_x_at) / Fold change /veh TMEM136 (11760407_x_at) / RFU CLDN22 /// WWC2 (11732394_at) / Fold change /veh CLDN22 /// WWC2 (11732394_at) / RFU HLA-DPB1 (11760878_x_at) / Fold change /veh HLA-DPB1 (11760878_x_at) / RFU SPINT1 (11716480_a_at) / Fold change /veh SPINT1 (11716480_a_at) / RFU GAP43 (11754022_s_at) / Fold change /veh GAP43 (11754022_s_at) / RFU A4GNT (11735810_at) / Fold change /veh A4GNT (11735810_at) / RFU PRB3 (11715151_x_at) / Fold change /veh PRB3 (11715151_x_at) / RFU TUBB4B (11761932_at) / Fold change /veh TUBB4B (11761932_at) / RFU CAPN14 (11732068_a_at) / Fold change /veh CAPN14 (11732068_a_at) / RFU TMCC2 (11721928_a_at) / Fold change /veh TMCC2 (11721928_a_at) / RFU IRGQ (11745062_a_at) / Fold change /veh IRGQ (11745062_a_at) / RFU FAM174B (11720279_a_at) / Fold change /veh FAM174B (11720279_a_at) / RFU TMPRSS4 (11748680_a_at) / Fold change /veh TMPRSS4 (11748680_a_at) / RFU FAM212B (11763350_a_at) / Fold change /veh FAM212B (11763350_a_at) / RFU PLEKHG5 (11743358_a_at) / Fold change /veh PLEKHG5 (11743358_a_at) / RFU ZSCAN30 (11745921_a_at) / Fold change /veh ZSCAN30 (11745921_a_at) / RFU CMKLR1 (11741424_a_at) / Fold change /veh CMKLR1 (11741424_a_at) / RFU LOC101060620 /// MAPK8IP1 (11723275_at) / Fold change /veh LOC101060620 /// MAPK8IP1 (11723275_at) / RFU SPTSSB (11747773_x_at) / Fold change /veh SPTSSB (11747773_x_at) / RFU PRSS12 (11739890_at) / Fold change /veh PRSS12 (11739890_at) / RFU BIN1 (11741810_x_at) / Fold change /veh BIN1 (11741810_x_at) / RFU WNT11 (11732464_a_at) / Fold change /veh WNT11 (11732464_a_at) / RFU C10orf10 (11716521_a_at) / Fold change /veh C10orf10 (11716521_a_at) / RFU C5orf56 (11738089_at) / Fold change /veh C5orf56 (11738089_at) / RFU CYB561 (11721691_x_at) / Fold change /veh CYB561 (11721691_x_at) / RFU ANKRD19P (11752326_a_at) / Fold change /veh ANKRD19P (11752326_a_at) / RFU OR2T12 /// OR2T33 /// OR2T8 (11738714_s_at) / Fold change /veh OR2T12 /// OR2T33 /// OR2T8 (11738714_s_at) / RFU VCAN (11748164_a_at) / Fold change /veh VCAN (11748164_a_at) / RFU JSRP1 (11732532_at) / Fold change /veh JSRP1 (11732532_at) / RFU KRTAP10-11 (11738290_x_at) / Fold change /veh KRTAP10-11 (11738290_x_at) / RFU MYO3A (11730013_a_at) / Fold change /veh MYO3A (11730013_a_at) / RFU EBF3 (11725865_a_at) / Fold change /veh EBF3 (11725865_a_at) / RFU CAMK2N1 (11719241_x_at) / Fold change /veh CAMK2N1 (11719241_x_at) / RFU C5orf56 (11738088_a_at) / Fold change /veh C5orf56 (11738088_a_at) / RFU OLFML3 (11715873_a_at) / Fold change /veh OLFML3 (11715873_a_at) / RFU LOC100653217 /// NTM (11731650_a_at) / Fold change /veh LOC100653217 /// NTM (11731650_a_at) / RFU MAPK11 (11762145_a_at) / Fold change /veh MAPK11 (11762145_a_at) / RFU FIZ1 (11724087_x_at) / Fold change /veh FIZ1 (11724087_x_at) / RFU OASL (11726364_x_at) / Fold change /veh OASL (11726364_x_at) / RFU SOX15 (11748057_x_at) / Fold change /veh SOX15 (11748057_x_at) / RFU CD79A (11719716_a_at) / Fold change /veh CD79A (11719716_a_at) / RFU HIST1H1D (11736915_at) / Fold change /veh HIST1H1D (11736915_at) / RFU CASKIN2 (11723855_a_at) / Fold change /veh CASKIN2 (11723855_a_at) / RFU LOC730098 (11760151_x_at) / Fold change /veh LOC730098 (11760151_x_at) / RFU OR4N2 (11742367_at) / Fold change /veh OR4N2 (11742367_at) / RFU PRRT2 (11749266_a_at) / Fold change /veh PRRT2 (11749266_a_at) / RFU SNX32 (11753110_a_at) / Fold change /veh SNX32 (11753110_a_at) / RFU CDHR5 (11726645_a_at) / Fold change /veh CDHR5 (11726645_a_at) / RFU RCAN1 (11760418_a_at) / Fold change /veh RCAN1 (11760418_a_at) / RFU FAM167A (11723789_a_at) / Fold change /veh FAM167A (11723789_a_at) / RFU FAM26E (11764081_at) / Fold change /veh FAM26E (11764081_at) / RFU ISYNA1 (11749810_s_at) / Fold change /veh ISYNA1 (11749810_s_at) / RFU ACY1 (11761880_at) / Fold change /veh ACY1 (11761880_at) / RFU 11764098_at / Fold change /veh 11764098_at / RFU SAMD14 (11745864_x_at) / Fold change /veh SAMD14 (11745864_x_at) / RFU NPB (11741838_a_at) / Fold change /veh NPB (11741838_a_at) / RFU TMPRSS6 (11731388_a_at) / Fold change /veh TMPRSS6 (11731388_a_at) / RFU KRTAP10-2 (11738614_at) / Fold change /veh KRTAP10-2 (11738614_at) / RFU ARHGAP8 /// PRR5-ARHGAP8 (11727945_x_at) / Fold change /veh ARHGAP8 /// PRR5-ARHGAP8 (11727945_x_at) / RFU KRTAP5-7 /// NADSYN1 (11734609_at) / Fold change /veh KRTAP5-7 /// NADSYN1 (11734609_at) / RFU RASL12 (11751679_a_at) / Fold change /veh RASL12 (11751679_a_at) / RFU CDKN2B (11736163_a_at) / Fold change /veh CDKN2B (11736163_a_at) / RFU PRF1 (11729649_at) / Fold change /veh PRF1 (11729649_at) / RFU, ZNF638 /// ZNF638-IT1 / Fold change vs veh, ZNF638 /// ZNF638-IT1 / RFU, PANK3 / Fold change vs veh, PANK3 / RFU, SH3YL1 / Fold change vs veh, SH3YL1 / RFU, ZEB2 / Fold change vs veh, ZEB2 / RFU, NRIP1 / Fold change vs veh, NRIP1 / RFU, PTTG1IP / Fold change vs veh, PTTG1IP / RFU, CAPN2 / Fold change vs veh, CAPN2 / RFU, MED14 / Fold change vs veh, MED14 / RFU, SNORA58 / Fold change vs veh, SNORA58 / RFU, C1orf63 / Fold change vs veh, C1orf63 / RFU, LRRFIP1 / Fold change vs veh, LRRFIP1 / RFU, NDUFAF7 / Fold change vs veh, NDUFAF7 / RFU, SLC12A2 / Fold change vs veh, SLC12A2 / RFU, IBTK / Fold change vs veh, IBTK / RFU, ESF1 / Fold change vs veh, ESF1 / Fold change vs veh, TMEM50B / RFU, TAOK1 / Fold change vs veh, TAOK1 / RFU, ACBD3 / Fold change vs veh, ACBD3 / RFU, TMA16 / Fold change vs veh, TMA16 / RFU, RWDD3 / Fold change vs veh, RWDD3 / RFU, BCAT1 / Fold change vs veh, BCAT1 / RFU, EDEM3 / Fold change vs veh, EDEM3 / RFU, TMEM33 / Fold change vs veh, TMEM33 / RFU, WDR75 / Fold change vs veh, WDR75 / RFU, AHCTF1 / Fold change vs veh, AHCTF1 / RFU, TFRC / Fold change vs veh, TFRC / RFU, ZDHHC17 / Fold change vs veh, ZDHHC17 / RFU, NOM1 / Fold change vs veh, NOM1 / RFU, ARL8B / Fold change vs veh, ARL8B / RFU, ZBTB11 / Fold change vs veh, ZBTB11 / RFU, TAMM41 / Fold change vs veh, TAMM41 / RFU, KIAA1704 /// LOC100996395 / Fold change vs veh, KIAA1704 /// LOC100996395 / RFU, ING1 / Fold change vs veh, ING1 / RFU, TRMT61B / Fold change vs veh, TRMT61B / RFU, FUBP3 / Fold change vs veh, FUBP3 / RFU, TP53 / Fold change vs veh, TP53 / RFU, TNKS2 / Fold change vs veh, TNKS2 / RFU, ZFP14 / Fold change vs veh, ZFP14 / RFU, ACTR2 / Fold change vs veh, ACTR2 / RFU, PPP3R1 / Fold change vs veh, PPP3R1 / RFU, PIK3R1 / Fold change vs veh, PIK3R1 / RFU, HNRNPA1 / Fold change vs veh, HNRNPA1 / RFU, RNF170 / Fold change vs veh, RNF170 / RFU, ZNF28 / Fold change vs veh, ZNF28 / RFU, RNGTT / Fold change vs veh, RNGTT / RFU, OGT / Fold change vs veh, OGT / RFU, BRD1 / Fold change vs veh, BRD1 / RFU, MARS / Fold change vs veh, MARS / RFU, ZNF655 / Fold change vs veh, ZNF655 / RFU, FAHD1 / Fold change vs veh, FAHD1 / RFU, BDP1 / Fold change vs veh, BDP1 / RFU, LRRCC1 / Fold change vs veh, LRRCC1 / RFU, ARID1A / Fold change vs veh, ARID1A / RFU, ZNF146 / Fold change vs veh, ZNF146 / RFU, ZNF330 / Fold change vs veh, ZNF330 / RFU, GPN3 / Fold change vs veh, GPN3 / RFU, C9orf123 / Fold change vs veh, C9orf123 / RFU, N4BP2L2 / Fold change vs veh, N4BP2L2 / RFU, ARFIP1 / Fold change vs veh, ARFIP1 / RFU, FAM179B / Fold change vs veh, FAM179B / RFU, BCL10 / Fold change vs veh, BCL10 / RFU, UHRF1BP1L / Fold change vs veh, UHRF1BP1L / RFU, BET1 / Fold change vs veh, BET1 / RFU, CNOT2 / Fold change vs veh, CNOT2 / RFU, ZNF268 / Fold change vs veh, ZNF268 / Fold change vs veh, ZNF507 / RFU, DGCR2 / Fold change vs veh, DGCR2 / RFU, WDSUB1 / Fold change vs veh, WDSUB1 / Fold change vs veh, HSP90B1 /// MIR3652 / RFU, ADSS / Fold change vs veh, ADSS / RFU, GK / Fold change vs veh, GK / RFU, ZNF148 / Fold change vs veh, ZNF148 / RFU, TAF9 / Fold change vs veh, TAF9 / RFU, SLC1A5 / Fold change vs veh, SLC1A5 / RFU, SLMO2 / Fold change vs veh, SLMO2 / RFU, ABCC4 / Fold change vs veh, ABCC4 / RFU, LOC101060439 /// RAP1B / Fold change vs veh, LOC101060439 /// RAP1B / RFU, RFX7 / Fold change vs veh, RFX7 / RFU, GTPBP10 / Fold change vs veh, GTPBP10 / RFU, CNEP1R1 / Fold change vs veh, CNEP1R1 / RFU, BIVM-ERCC5 /// ERCC5 / Fold change vs veh, BIVM-ERCC5 /// ERCC5 / RFU, ILF3 / Fold change vs veh, ILF3 / RFU 11762660_at / Fold change /veh 11762660_at / RFU VCAN (11757783_s_at) / Fold change /veh VCAN (11757783_s_at) / RFU DDX43 (11728927_at) / Fold change /veh DDX43 (11728927_at) / RFU KRT8 (11758188_x_at) / Fold change /veh KRT8 (11758188_x_at) / RFU NKD1 (11759106_at) / Fold change /veh NKD1 (11759106_at) / RFU SRD5A1 (11742802_a_at) / Fold change /veh SRD5A1 (11742802_a_at) / RFU TPSAB1 /// TPSB2 (11721975_s_at) / Fold change /veh TPSAB1 /// TPSB2 (11721975_s_at) / RFU GSTM3 (11746129_a_at) / Fold change /veh GSTM3 (11746129_a_at) / RFU IL23R (11737362_x_at) / Fold change /veh IL23R (11737362_x_at) / RFU TMEM51 (11727254_a_at) / Fold change /veh TMEM51 (11727254_a_at) / RFU PIWIL2 (11732686_x_at) / Fold change /veh PIWIL2 (11732686_x_at) / RFU ORM1 (11744905_x_at) / Fold change /veh ORM1 (11744905_x_at) / RFU CCDC152 (11743942_at) / Fold change /veh CCDC152 (11743942_at) / RFU ECM1 (11717891_a_at) / Fold change /veh ECM1 (11717891_a_at) / RFU IL23R (11748794_a_at) / Fold change /veh IL23R (11748794_a_at) / RFU TNFAIP8L3 (11732012_x_at) / Fold change /veh TNFAIP8L3 (11732012_x_at) / RFU MBOAT4 (11741988_at) / Fold change /veh MBOAT4 (11741988_at) / RFU 11764193_at / Fold change /veh 11764193_at / RFU TMEM53 (11763286_at) / Fold change /veh TMEM53 (11763286_at) / RFU MAGEB2 (11727129_at) / Fold change /veh MAGEB2 (11727129_at) / RFU TMEM200A (11744735_a_at) / Fold change /veh TMEM200A (11744735_a_at) / RFU CCDC152 (11751479_a_at) / Fold change /veh CCDC152 (11751479_a_at) / RFU FAM211A (11726209_a_at) / Fold change /veh FAM211A (11726209_a_at) / RFU RGS16 (11746705_a_at) / Fold change /veh RGS16 (11746705_a_at) / RFU VCAN (11755009_s_at) / Fold change /veh VCAN (11755009_s_at) / RFU RHOB (11743442_s_at) / Fold change /veh RHOB (11743442_s_at) / RFU RGS16 (11720943_a_at) / Fold change /veh RGS16 (11720943_a_at) / RFU RGS16 (11720944_at) / Fold change /veh RGS16 (11720944_at) / RFU, VPS4B / Fold change vs veh, VPS4B / RFU, CREB1 / Fold change vs veh, CREB1 / RFU, DNAJC13 / Fold change vs veh, DNAJC13 / RFU, GNAQ / Fold change vs veh, GNAQ / RFU, CDK5R1 / Fold change vs veh, CDK5R1 / RFU, ZRANB3 / Fold change vs veh, ZRANB3 / RFU, CUL4A / Fold change vs veh, CUL4A / RFU, CCNY / Fold change vs veh, CCNY / RFU, UFL1 / Fold change vs veh, UFL1 / RFU, COG3 / Fold change vs veh, COG3 / RFU, DIAPH2 / Fold change vs veh, DIAPH2 / RFU, SKA2 / Fold change vs veh, SKA2 / RFU, AFF3 / Fold change vs veh, AFF3 / RFU, LMF1 / Fold change vs veh, LMF1 / RFU, IPO11 / Fold change vs veh, IPO11 / RFU, DFFB / Fold change vs veh, DFFB / RFU, FOXP1 / Fold change vs veh, FOXP1 / RFU, CARD8 / Fold change vs veh, CARD8 / RFU, STRN3 / Fold change vs veh, STRN3 / RFU, ADK / Fold change vs veh, ADK / RFU, RASSF2 / Fold change vs veh, RASSF2 / RFU, WIPF1 / Fold change vs veh, WIPF1 / RFU, LARP1B / Fold change vs veh, LARP1B / RFU, RASA1 / Fold change vs veh, RASA1 / RFU, RB1 / Fold change vs veh, RB1 / RFU, PPFIA1 / Fold change vs veh, PPFIA1 / RFU, MAT2A / Fold change vs veh, MAT2A / RFU, CCT5 / Fold change vs veh, CCT5 / RFU, WDR92 / Fold change vs veh, WDR92 / RFU, CUX1 / Fold change vs veh, CUX1 / RFU, TTC7A / Fold change vs veh, TTC7A / RFU, TMEM135 / Fold change vs veh, TMEM135 / RFU, DEPTOR / Fold change vs veh, DEPTOR / RFU, CPM / Fold change vs veh, CPM / RFU, DNAJB6 / Fold change vs veh, DNAJB6 / RFU, CACNA2D3 / Fold change vs veh, CACNA2D3 / RFU, DTX4 / Fold change vs veh, DTX4 / RFU, TFCP2 / Fold change vs veh, TFCP2 / RFU, GMCL1 /// GMCL1P1 / Fold change vs veh, GMCL1 /// GMCL1P1 / RFU, AEBP2 / Fold change vs veh, AEBP2 / RFU, SNHG1 /// SNORD22 /// SNORD25 /// SNORD26 /// SNORD27 /// SNORD28 /// SNORD29 /// SNORD31 / Fold change vs veh, SNHG1 /// SNORD22 /// SNORD25 /// SNORD26 /// SNORD27 /// SNORD28 /// SNORD29 /// SNORD31 / Fold change (Aza/veh), C12orf56 (ProbeSet 11735607_a_at) / Fold change (ACY-1035/veh), C12orf56 (ProbeSet 11735607_a_at) / Fold change (Aza/veh), FGFR1OP (ProbeSet 11751329_s_at) / Fold change (ACY-1035/veh), FGFR1OP (ProbeSet 11751329_s_at) / Fold change (Aza/veh), VPS36 (ProbeSet 11739960_a_at) / Fold change (ACY-1035/veh), VPS36 (ProbeSet 11739960_a_at) / RFU SYPL1 (11715823_x_at) / Fold change /veh SYPL1 (11715823_x_at) / RFU IGFBP7 (11715501_s_at) / Fold change /veh IGFBP7 (11715501_s_at) / RFU REEP3 (11722064_at) / Fold change /veh REEP3 (11722064_at) / RFU IGLL1 (11728026_x_at) / Fold change /veh IGLL1 (11728026_x_at): dose or concentration left out as unconfirmed
Settings: ProbeSet 11738335_x_at; LIST B

`Nc1ccc(-c2cccs2)cc1NC(=O)c1ccc2c(c1)cc(C1CC1)n2CCN1CCOCC1` [ACY-1035] was tested, and the “RFU, TP53” value was 73.59 RFU.
